18 molecules from the OPERA property sets (Mansouri et al. 2018) can be followed below.

A word on the logP: it is the decadic logarithm of the partition coefficient of the neutral form, usually between octanol and water. Read a high logP as higher lipophilicity.

Turning to `CN(C)C(=O)OCCCc1cccnc1`, the logP came out at 1.44. The molecule `CNC(=O)OCc1ccccc1` showed a log partition coefficient (logP) of 1.68.

Take `CC(C)OC(=O)N(C)C`: the logP was determined as 1.38. For the molecule `CN(C)C(=O)OCCCc1ccccc1`, the logP came to 2.93. On to `CN(C)C(=O)OCCc1ccccc1`, for which the logP was 2.4. Consider `CCN(CC)C(=O)OCCc1c[nH]c2ccccc12`, for which the lipophilicity (logP) came to 3.3. `CN(C)C(=O)OCCc1c[nH]c2ccccc12`: the logP came to 2.54.

For the molecule `CCC(CC)COC(=O)N(C)C`, the logP came to 2.87.

The molecule `NC(=O)OCCc1c[nH]c2ccccc12` had a log partition coefficient (logP) of 1.69. Take `CCN(CC)C(=O)OCCc1ccccc1`: the log partition coefficient (logP) was determined as 3.2.

In turn, `CCN(CC)C(=O)OCc1ccccc1` showed a logP of 2.93. On to `CCC(CC)COC(=O)N(CC)CC`, for which the log partition coefficient (logP) is 3.6. Molecule `CC(Cc1ccccc1)OC(=O)N(C)C` (stereo not drawn) displayed a logP of 2.6. The same measure for `NC(=O)OCCc1ccccc1`: 1.5; for `NC(=O)OCCCc1ccccc1`: 1.96. Regarding `CCN(CC)C(=O)OCCCc1ccccn1`, the logP was determined as 2.36. As to `CCN(CC)C(=O)OCC(C)C`, the logP was 2.82. With `NC(=O)OCCCc1cccnc1`, the lipophilicity (logP) amounted to 0.46.
